Assay results from US10981917B2, “Heterocyclic compound, its preparation method, and pharmaceutical composition comprising the same” (Daewoong Pharmaceutical Co., Ltd., priority 2017, dated 2021).

Target: PRS (prolyl-tRNA synthetase) protein, PRS portion of EPRS (Homo sapiens (Human), UniProt P07814)
Assay: PRS enzyme activity inhibition experiment ([3H]proline, liquid scintillation)
Assay type: biochemical
Settings: purified PRS protein, 37° C. for 5 to 10 minutes
Outline: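 Values are % inhibition or IC50 ranges (A ≤100 nM, B 100–500 nM, C ≥500 nM) from [3H]proline incorporation measured by liquid scintillation. PRS portion of human EPRS, reacted 5–10 min at 37 °C in pH 7.4 phosphate buffer containing 5 mM ATP and tRNA, compound at 1 μM.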

Chain of PRS (prolyl-tRNA synthetase) protein, PRS portion of EPRS (P07814 1007-1512): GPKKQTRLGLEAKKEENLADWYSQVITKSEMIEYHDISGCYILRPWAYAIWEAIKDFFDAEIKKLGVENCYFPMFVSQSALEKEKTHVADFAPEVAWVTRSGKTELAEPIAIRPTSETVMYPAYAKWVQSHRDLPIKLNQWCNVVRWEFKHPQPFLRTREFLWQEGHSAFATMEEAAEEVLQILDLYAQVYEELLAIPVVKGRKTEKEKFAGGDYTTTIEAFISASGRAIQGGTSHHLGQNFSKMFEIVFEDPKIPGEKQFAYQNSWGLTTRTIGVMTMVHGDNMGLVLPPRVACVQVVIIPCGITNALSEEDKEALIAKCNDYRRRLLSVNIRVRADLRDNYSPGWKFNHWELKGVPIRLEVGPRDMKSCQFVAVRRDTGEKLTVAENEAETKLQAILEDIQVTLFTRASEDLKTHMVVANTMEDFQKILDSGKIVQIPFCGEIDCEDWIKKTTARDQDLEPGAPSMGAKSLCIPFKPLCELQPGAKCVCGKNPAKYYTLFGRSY

Row | Structure (SMILES) | IC50
1 | O=c1[nH]c2ccc(Br)cc2n1CCC[C@H]1NCCC[C@@H]1O [Example 161, 6-bromo-1-(3-((2R,3S)-3-hydroxypiperidin-2-yl)propyl)-1H-benzo[d]imidazol-2(3H)-one] | ≥ 500 nM
2 | Cc1c(Br)ccc2c1ncn2C/C=C/[C@H]1NCCC[C@@H]1O [Example 168, (2R,3S)-2-((E)-3-(5-bromo-4-methyl-1H-benzo[d]imidazol-1-yl)prop-1-enyl)piperidin-3-ol] | 100 to 500 nM
3 | O[C@H]1CCCN[C@@H]1/C=C/Cn1cnc2cc(Cl)c(Cl)cc21 [Example 166, (2R,3S)-2-((E)-3-(5,6-dichloro-1H-benzo[d]imidazol-1-yl)prop-1-enyl)piperidin-3-ol] | 100 to 500 nM
4 | O[C@H]1CCCN[C@@H]1CCCn1cnc2c(N3CCCCC3)ncnc21 [Example 141, (2R,3S)-2-(3-(6-(piperidin-1-yl)-9H-purin-9-yl)propyl)piperidin-3-ol] | ≥ 500 nM
5 | C/C(=C\[C@H]1NCCC[C@@H]1O)Cn1cnc2c(C)c(Cl)ccc21 [Example 221, (2R,3S)-2-((E)-3-(5-chloro-4-methyl-1H-benzo[d]imidazol-1-yl)-2-methylprop-1-en-1-yl)piperidin-3-ol] | ≥ 500 nM
6 | Cc1ccc2c(ncn2CCC[C@H]2NCCC[C@@H]2O)n1 [Example 121, (2R,3S)-2-(3-(5-methyl-1H-imidazo[4,5-b]pyridin-1-yl)propyl)piperidin-3-ol] | 100 to 500 nM
7 | O[C@H]1CCCN[C@@H]1CCCn1cnc2ccc(-c3ccccc3F)cc21 [Example 23, (2R,3S)-2-(3-(6-(2-fluorophenyl)-1H-benzo[d]imidazol-1-yl)propyl)piperidin-3-ol] | 100 to 500 nM
8 | O[C@H]1CCCN[C@@H]1CCCn1cnc2cc(Br)cc(F)c21 [Example 73, (2R,3S)-2-(3-(5-bromo-7-fluoro-1H-benzo[d]imidazol-1-yl)propyl)piperidin-3-ol] | 100 to 500 nM
9 | O[C@H]1CCCN[C@@H]1/C=C/Cn1cnc2cc(Cl)cc(F)c21 [Example 183, (2R,3S)-2-((E)-3-(5-chloro-7-fluoro-1H-benzo[d]imidazol-1-yl)prop-1-en-1-yl)piperidin-3-ol] | 100 to 500 nM
10 | O[C@H]1CCCN[C@@H]1CCCn1cnc2c(F)c(F)ccc21 [Example 49, (2R,3S)-2-(3-(4,5-difluoro-1H-benzo[d]imidazol-1-yl)propyl)piperidin-3-ol] | 100 to 500 nM
11 | O[C@H]1CCCN[C@@H]1CCCn1cnc2c(Cl)c(-c3cccc(Cl)c3)cnc21 [Example 134, (2R,3S)-2-(3-(7-chloro-6-(3-chlorophenyl)-3H-imidazo[4,5-b]pyridin-3-yl)propyl)piperidin-3-ol] | ≥ 500 nM
12 | O[C@H]1CCCN[C@@H]1/C=C/Cn1cnc2ccc(-c3cccc(C(F)(F)F)c3)cc21 [Example 192, (2R,3S)-2-((E)-3-(6-(3-(trifluoromethyl)phenyl)-1H-benzo[d]imidazol-1-yl)prop-1-enyl)piperidin-3-ol] | 100 to 500 nM
13 | Cc1c(Cl)ccc2c1ncn2CCC[C@H]1NCCC[C@@H]1O [Example 46, (2R,3S)-2-(3-(5-chloro-4-methyl-1H-benzo[d]imidazol-1-yl)propyl)piperidin-3-ol] | ≤ 100 nM
14 | O=C(O)c1cn(C/C=C/[C@H]2NCCC[C@@H]2O)c2c(Br)cccc12 [Example 203, 7-bromo-1-((E)-3-((2R,3S)-3-hydroxypiperidin-2-yl)allyl)-1H-indole-3-carboxylic acid] | ≥ 500 nM
15 | Cc1sccc1-c1cc(Cl)cc2ncn(CCC[C@H]3NCCC[C@@H]3O)c12 [Example 92, (2R,3S)-2-(3-(5-chloro-7-(2-methylthiophen-3-yl)-1H-benzo[d]imidazol-1-yl)propyl)piperidin-3-ol] | 100 to 500 nM
16 | O[C@H]1CCCN[C@@H]1CCCn1cnc2c(Cl)c(Cl)ccc21 [Example 40, (2R,3S)-2-(3-(4,5-dichloro-1H-benzo[d]imidazol-1-yl)propyl)piperidin-3-ol] | ≤ 100 nM
17 | O[C@H]1CCCN[C@@H]1CCCn1cnc2cc(F)ccc21 [Example 7, (2R,3S)-2-(3-(5-fluoro-1H-benzo[d]imidazol-1-yl)propyl)piperidin-3-ol] | 100 to 500 nM
18 | O[C@H]1CCCN[C@@H]1CCCn1cnc2c(-c3cccc(Cl)c3)cccc21 [Example 21, (2R,3S)-2-(3-(4-(3-chlorophenyl)-1H-benzo[d]imidazol-1-yl)propyl)piperidin-3-ol] | ≥ 500 nM
19 | O[C@H]1CCCN[C@@H]1CCCn1cnc2cc(Cl)cc(-c3cncc(F)c3)c21 [Example 87, (2R,3S)-2-(3-(5-chloro-7-(5-fluoropyridin-3-yl)-1H-benzo[d]imidazol-1-yl)propyl)piperidin-3-ol] | 100 to 500 nM
20 | O[C@H]1CCCN[C@@H]1CCCn1cnc2nc(Cl)ccc21 [Example 117, (2R,3S)-2-(3-(5-chloro-1H-imidazo[4,5-b]pyridin-1-yl)propyl)piperidin-3-ol] | 100 to 500 nM
21 | O[C@H]1CCCN[C@@H]1CCCn1cnc2c(N3CCCCC3)cccc21 [Example 19, (2R,3S)-2-(3-(4-(piperidin-1-yl)-1H-benzo[d]imidazol-1-yl)propyl)piperidin-3-ol] | ≥ 500 nM

Row | Structure (SMILES) | IC50
22 | O[C@H]1CCCN[C@@H]1CCCn1cnc2c(-c3cccc(F)c3)cccc21 [Example 20, (2R,3S)-2-(3-(4-(3-fluorophenyl)-1H-benzo[d]imidazol-1-yl)propyl)piperidin-3-ol] | ≥ 500 nM
23 | O=C(O)c1cn(C/C=C/[C@H]2NCCC[C@@H]2O)c2c(Cl)cccc12 [Example 207, 7-chloro-1-((E)-3-((2R,3S)-3-hydroxypiperidin-2-yl)allyl)-1H-indole-3-carboxylic acid] | ≥ 500 nM
24 | Cc1c(F)ccc2ncn(CCC[C@H]3NCCC[C@@H]3O)c12 [Example 65, (2R,3S)-2-(3-(6-fluoro-7-methyl-1H-benzo[d]imidazol-1-yl)propyl)piperidin-3-ol] | 100 to 500 nM
25 | O[C@H]1CCCN[C@@H]1CCCn1cnc2cc(Cl)cc(-c3cnn(C4COC4)c3)c21 [Example 102, (2R,3S)-2-(3-(5-chloro-7-(1-(oxetan-3-yl)-1H-pyrazol-4-yl)-1H-benzo[d]imidazol-1-yl)propyl)piperidin-3-ol] | 100 to 500 nM
26 | O[C@H]1CCCN[C@@H]1/C=C/Cn1cnc2cc(C(F)(F)F)cc(Cl)c21 [Example 181, (2R,3S)-2-((E)-3-(7-chloro-5-(trifluoromethyl)-1H-benzo[d]imidazol-1-yl)prop-1-en-1-yl)piperidin-3-ol] | 100 to 500 nM
27 | COC(=O)c1cn(CCC[C@H]2NCCC[C@@H]2O)c2cccc(Cl)c12 [Example 152, methyl 4-chloro-1-(3-((2R,3S)-3-hydroxypiperidin-2-yl)propyl)-1H-indole-3-carboxylate] | ≥ 500 nM
28 | Cc1c(Cl)ccc2c1ncn2CC#C[C@H]1NCCC[C@@H]1O [Example 227, (2R,3S)-2-(3-(5-chloro-4-methyl-1H-benzo[d]imidazol-1-yl)prop-1-yn-1-yl)piperidin-3-ol] | ≥ 500 nM
29 | COC(=O)c1cn(CCC[C@H]2NCCC[C@@H]2O)c2cc(Br)ccc12 [Example 151, methyl 6-bromo-1-(3-((2R,3S)-3-hydroxypiperidin-2-yl)propyl)-1H-indole-3-carboxylate] | 100 to 500 nM
30 | Cc1ccc2c(ncn2CCC[C@H]2NCCC[C@@H]2O)c1Cl [Example 44, (2R,3S)-2-(3-(4-chloro-5-methyl-1H-benzo[d]imidazol-1-yl)propyl)piperidin-3-ol] | 100 to 500 nM
31 | Cc1ccc2c(c1)ncn2CCC[C@H]1NCCC[C@@H]1O [Example 14, (2R,3S)-2-(3-(5-methyl-1H-benzo[d]imidazol-1-yl)propyl)piperidin-3-ol] | ≥ 500 nM
32 | Cc1c(Br)ccc2c1ncn2C/C(F)=C/[C@H]1NCCC[C@@H]1O [Example 218, (2R,3S)-2-((Z)-3-(5-bromo-4-methyl-1H-benzo[d]imidazol-1-yl)-2-fluoroprop-1-en-1-yl)piperidin-3-ol] | ≥ 500 nM
33 | Oc1nc2cc(Cl)c(Cl)cc2n1CCC[C@H]1NCCC[C@@H]1O [Example 144, 5,6-dichloro-1-(3-((2R,3S)-3-hydroxypiperidin-2-yl)propyl)-1H-benzo[d]imidazol-2-ol] | ≥ 500 nM
34 | O[C@H]1CCCN[C@@H]1CCCn1cnc2cnc(Cl)cc21 [Example 122, (2R,3S)-2-(3-(6-chloro-1H-imidazo[4,5-c]pyridin-1-yl)propyl)piperidin-3-ol] | 100 to 500 nM
35 | O[C@H]1CCCN[C@@H]1CCCn1cnc2cc(Br)ccc21 [Example 3, (2R,3S)-2-(3-(5-bromo-1H-benzo[d]imidazol-1-yl)propyl)piperidin-3-ol] | ≥ 500 nM
36 | Nc1nc2cc(Cl)c(Cl)cc2n1CCC[C@H]1NCCC[C@@H]1O [Example 148, (2R,3S)-2-(3-(2-amino-5,6-dichloro-1H-benzo[d]imidazol-1-yl)propyl)piperidin-3-ol] | 100 to 500 nM
37 | O[C@H]1CCCN[C@@H]1CCCn1nc(-c2cnn(C(F)F)c2)c2ccc(Cl)cc21 [Example 158, (2R,3S)-2-(3-(6-chloro-3-(1-(difluoromethyl)-1H-pyrazol-4-yl)-1H-indazol-1-yl)propyl)piperidin-3-ol] | ≥ 500 nM
38 | COC(=O)c1cc(Br)c2c(c1)ncn2CCC[C@H]1NCCC[C@@H]1O [Example 68, methyl 7-bromo-1-(3-((2R,3S)-3-hydroxypiperidin-2-yl)propyl)-1H-benzo[d]imidazole-5-carboxylate] | ≥ 500 nM
39 | O[C@H]1CCCN[C@@H]1/C=C/Cn1ccc2ccc(Cl)cc21 [Example 197, (2R,3S)-2-((E)-3-(6-chloro-1H-indol-1-yl)prop-1-en-1-yl)piperidin-3-ol] | ≥ 500 nM
40 | O[C@H]1CCCN[C@@H]1CCCn1cnc2cc(Cl)cc(-c3cccnc3)c21 [Example 86, (2R,3S)-2-(3-(5-chloro-7-(pyridin-3-yl)-1H-benzo[d]imidazol-1-yl)propyl)piperidin-3-ol] | 100 to 500 nM
41 | O[C@H]1CCCN[C@@H]1CCCn1cnc2ccc(Cl)c(Cl)c21 [Example 56, (2R,3S)-2-(3-(6,7-dichloro-1H-benzo[d]imidazol-1-yl)propyl)piperidin-3-ol] | 100 to 500 nM
